The species entered for series [1] is Rattus norvegicus. The following applies: in vivo, po, 3 mg/kg.
The nature of series [2]: in vivo. The following applies: Sprague-Dawley, rat, po, 3 mg/kg.
For series [3], the species on record is Rattus norvegicus. The settings on record: in vivo, po, 3 mg/kg. The source holds these as a separate data set.
The species entered for series [4] is Rattus norvegicus. The settings on record: in vivo, po, 3 mg/kg. The source holds these as a separate data set.
Series [5] in a line: in vivo. The following applies: Sprague-Dawley, rat, po, 3 mg/kg. This is another data set of the same source.
Series [6] can be described thus: in vivo. The settings on record: Sprague-Dawley, rat, po, 3 mg/kg. The source holds these as a separate data set.
Series [7] is described as follows: in vivo. The settings on record: Sprague-Dawley, rat, plasma, po, 3 mg/kg.
Series [8] is described as follows: in vivo. The settings on record: Sprague-Dawley, rat, po, 3 mg/kg. This is another data set of the same source.
A short description of series [9]: in vivo. The following applies: Sprague-Dawley, rat, po, 3 mg/kg. This is another data set of the same source.

For orientation: Cmax means the maximum level reached in the sampled fluid or tissue. One may read the Tmax as the time from dosing to the highest level. Regarding `CCCCCCCCc1ccc(CCC(N)(CO)CO)cc1` [FINGOLIMOD], in the series listed under Rattus norvegicus [1], the t1/2 was found to be 18.9 h. For the same molecule, the peak level in the series “in vivo [2]” (Cmax) was 13.2 ng/mL. For the same molecule, the AUCt in the series filed under Rattus norvegicus [3] worked out at 319 ng·h/mL. In the series filed under Rattus norvegicus [4], the Vss/F was determined as 208 L/kg. For the same molecule, in “in vivo [5]”, the Tmax is 8.4 h.

A word on the Vd/F: it is the apparent distribution volume after extravascular dosing. A word on the AUC(0-t): it is exposure summed from dosing to a finite time, without extrapolation to infinity. A high value points to more exposure. By half-life is commonly meant the time needed for the level to fall by half in the phase considered. For orientation: CL/F means clearance divided by bioavailability, as obtained after extravascular dosing. Regarding `Cl.NC(CO)(CO)CCc1ccc(-c2coc(-c3ccc(Cl)cc3)n2)cc1`, the Vd/F in the series “in vivo [6]” worked out at 60 L/kg. Moreover, in “in vivo [7]”, the AUC(0-t) came out at 900 ng·h/mL. For the same molecule, in the series “in vivo [2]”, the highest level (Cmax) was 28.5 ng/mL. The same molecule gave a half-life in “in vivo [8]” of 1130 min. The molecule also gave a CL/F in the series “in vivo [9]” of 36.7 mL/min/kg. Further, the Tmax in the series “in vivo [5]” came to 6.7 h.

`Cl.NC(CO)(CO)CCc1ccc(-c2coc(Cc3ccc(Cl)cc3)n2)cc1` showed a Vd/F in “in vivo [6]” of 44.1 L/kg. For the same molecule, the AUC(0-t) in the series “in vivo [7]” stood at 1700 ng·h/mL. In addition, the Cmax in the series “in vivo [2]” stood at 109 ng/mL. For the same molecule, the half-life in the series “in vivo [8]” was 1270 min. The CL/F in “in vivo [9]” is 25 mL/min/kg. The Tmax in “in vivo [5]” came to 4 h.

In the series filed under Rattus norvegicus [1], `CCCCCCCCc1ccc(CCC(N)(CO)COP(=O)(O)O)cc1` (stereo not drawn) gave a t1/2 of 25.2 h. Moreover, the concentration in the series “in vivo [2]” peaked (Cmax) at 385 ng/mL. Further, the AUCt in the series filed under Rattus norvegicus [3] was determined as 4910 ng·h/mL. In the series listed under Rattus norvegicus [4], this molecule displayed a Vss/F of 17.2 L/kg. The Tmax in “in vivo [5]” was found to be 6 h.

Regarding `COc1ccc(-c2nc(-c3ccc(CCC(N)(CO)CO)cc3)co2)cc1.Cl`, in the series “in vivo [6]”, the Vd/F worked out at 300 L/kg. In the series “in vivo [7]”, the AUC(0-t) amounted to 73.4 ng·h/mL. In addition, in “in vivo [2]”, the Cmax stood at 9.51 ng/mL. The molecule also showed a half-life in the series “in vivo [8]” of 312 min. This molecule gave an apparent clearance CL/F in “in vivo [9]” of 692 mL/min/kg. Besides, the Tmax in “in vivo [5]” came to 4.7 h.

The record behind these values is ChEMBL document CHEMBL3352708, “Discovery of oxazole and triazole derivatives as potent and selective S1P(1) agonists through pharmacophore-guided design” (Eur J Med Chem, 2014).
